TGI data for three compounds are collected here from PubChem BioAssay (NCI).

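Briefly, cells in 96-well plates were exposed to five compound concentrations for 48 h, and endpoints were estimated by linear interpolation. TGI is the concentration that stops growth completely.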 Some results are limits rather than exact numbers.

The test system of one assay is KM20L2 colon. Put plainly: NCI-60 cell line screen, 48 h.
The subject of a further assay is RXF-631 renal. As to the kind of experiment: NCI-60 cell line screen, 48 h.

As to `CC(Oc1ccc(Oc2cnc3ccc(Cl)cc3n2)cc1)C(=O)O` (stereo not drawn), the TGI in the assay with KM20L2 colon is over 100 µM.

`COc1cccc(-c2cc(=O)c3cc4c(cc3[nH]2)OCO4)c1`: the TGI in the assay with RXF-631 renal is over 100 µM. In turn, `COc1cc(C(=O)N[C@H]2CCc3cc(OC)c(OC)c(OC)c3-c3ccc(SC)c(=O)cc32)cc(OC)c1OC` returned a TGI in the assay on RXF-631 renal of over 100 µM.
